What was measured:
[1] = test system: MAPK1p.D321N mutant tumors (FaDu xenografts); test: Erlotinib response of isogenic FaDu tumor xenografts expressing MAPK1 p.D321N in nude mice
From the text: (§1) FaDu cells expressing MAPK1 WT, MAPK1 p.D321N and MAPK1 p.R135K respectively were inoculated into nude mice subcutaneously (8×10^5 cells per inoculation). Mice with tumor expressing respective MAPK1 WT/mutations were randomized into erlotinib (erlotinib dissolved in 10% 2-Hydroxypropyl-beta-cyclodextrin (HP-j-CD) or vehicle (10% HP-β-CD) treatment groups (N=8 tumors per group). Treatment started when tumors were palpable and reached the size ˜3×3-4×4 mm^2. Erlotinib or the vehicle control were administered by oral gavage (50 mg/kg erlotinib or the corresponding vehicle amount) for 5 consecutive days as indicated by the arrows on the X-axis. FIG. 2B: IHC staining showing membranous p-EGFR expression of these xenografts post erlotinib/vehicle treatments (N>3 per group). […] FIG. 2C: IHC staining showing corresponding pan-cytokeratin expression in these tumors post erlotinib/vehicle treatment (N>3 per group).
(§2) The VECTASTAIN Elite ABC Universal PLUS Kit Peroxidase (Horse Anti-Mouse/Rabbit IgG) (Cat: PKK-8200) was used for IHC. Cytokeratin mouse antibody (DAKO, Cat: M3515, 1:500) and Anti-EGFR (phosphor Y1173) antibody [E124] (Abcam, Cat: ab32578, 1:100) were used as primary antibodies.
(§3) Isogenic FaDu cells were infected with MAPK1-WT and MAPK1 mutants by retrovirus and injected into nude mice subcutaneously (8×10^5 cell per mouse, age of 4-5 weeks). Mice injected with respective infected FaDu cells were randomized into Erlotinib treatment group or Vehicle group (2 tumors born by each mice, 4 mice per group). Treatment started at day 6 after injection with 6 dose per week until day 15. Erlotinib (dissolved in 10% HP-j-CD) or vehicle control were administered orally at a dose of 50 mg/kg. Tumor volume was monitored and calculated by the equation: length×width^2/2 repeatedly for 5 consecutive days as indicated by the arrows on the X-axis of FIG. 2(a). The mice were sacrifice at the end-point of the experiment.

[2] = test system: MAPK1p.R135K mutant xenografts (FaDu); test: Erlotinib response of isogenic FaDu tumor xenografts expressing MAPK1 p.R135K in nude mice
From the text: as §1, §2, §3

[3] = test system: FaDu-MAPK1 WT xenografts; test: Erlotinib response of isogenic FaDu tumor xenografts expressing MAPK1-WT in nude mice
From the text: as §1
The VECTASTAIN Elite ABC Universal PLUS Kit Peroxidase (Horse Anti-Mouse/Rabbit IgG) (Cat: PKK-8200) was used for IHC. […]
Isogenic FaDu cells were infected with MAPK1-WT and MAPK1 mutants by retrovirus and injected into nude mice subcutaneously (8×10^5 cell per mouse, age of 4-5 weeks). […] Tumor volume was monitored and calculated by the equation: length×width^2/2 repeatedly for 5 consecutive days as indicated by the arrows on the X-axis of FIG. 2(a). […]

C#Cc1cccc(Nc2ncnc3cc(OCCOC)c(OCCOC)cc23)c1 [erlotinib]
tumor-negative (cytokeratin-negative) areas (IHC) ([1]; MAPK1p.D321N FaDu xenografts post erlotinib 50 mg/kg oral): concomitant increases in tumor-negative areas
membranous p-EGFR signals remaining in the tumors (IHC) ([1]; MAPK1p.D321N FaDu xenografts post erlotinib 50 mg/kg oral, untreated mutants 80-90% positive cells): less than 20%
reduction in tumor volume vs. vehicle treatment ([1]; MAPK1p.D321N FaDu xenografts, erlotinib 50 mg/kg oral gavage, P=0.0037): 60.3%
tumor-negative (cytokeratin-negative) areas (IHC) ([2]; MAPK1p.R135K FaDu xenografts post erlotinib 50 mg/kg oral): noticeable increases in tumor-negative areas
percent tumor cells bearing membranous p-EGFR staining (IHC) ([2]; MAPK1p.R135K FaDu xenografts post erlotinib 50 mg/kg oral, 90% in vehicle treated tumors): 50%
tumor size reduction vs. vehicle treatment ([2]; MAPK1p.R135K FaDu xenografts, erlotinib 50 mg/kg oral gavage, trend, P=0.0646): 28.0%
change in tumor size vs. vehicle control ([3]; erlotinib 50 mg/kg oral gavage, P=0.4080): did not result in any change in tumor size
change in membranous p-EGFR signal in the tumors (IHC) ([3]; erlotinib 50 mg/kg oral, vs. vehicle control): did not result in any change

— patent US20210363591A1, “MAPK1 MUTATIONS AND DRUG SENSITIVITY” (The Chinese University of Hong Kong, priority 2020, published 2021)
